Test results from patent US20130079299A1, “Arthritis Therapeutic Agent” (GLUCAN CORPORATION, priority 2010, published 2013).

Experiments:
[1] = tested on: rheumatoid arthritis (RA) DBA mouse caused by collagen; test: Collagen-induced rheumatoid arthritis (RA) mouse model, histomorphometry of thymus, spleen and knee joint; format: in vivo
Text: Bone tissue was amputated from around the thymus and spleen and fixed in 10% neutral formalin, and was then dehydrated and paraffin embedded to provide a 3-4 μm longitudinal section, then dyed with Hematoxylineosin and observed under an optical microscope. In addition, the knee joint of both the rear legs were removed from the around connective tissue and fixed in 10% neutral formalin, and then it was decalcificated using a decalcification solution containing 24.4% of formic acid and 0.5 N of sodium hydroxide for 5 days. […] Then the section was dyed with Hematoxylineosin and observed under the optical microscope. […] DMI, Korea) in the view of a 40×-magnification microscope, and the thickness of articular cartilage of the femur and tibia of the knee joint, the proteoglycan loss, and erosion were evaluated by an automated image analyzer (DMI-300 Image Processing; DMI, Korea) in the view of a 100×-magnification microscope according to the known method [Dudler et al., 2000; van Holten et al., 20 04; Kim et al., 2007]. The proteoglycan loss was evaluated into 3 levels for stainability of Safranin O dye specialized for proteoglycans according to the known method [Williams et al., 1992; Dudler et al., 2000; van Holten et al., 2004]. In other words, 0 indicates no proteoglycan loss, and 3 indicates no stainability because of complete deflection. […] The RA(Rhematoid Arthritis)-induced mouse model using collagen is one of the animal models that are widely used for evaluating the efficacy on RA for various materials [Liu et al., 2008; Miyake et al., 2008; Pa nayi et al., 2008], and RA was caused by the auto-immunity.

[2] = tested on: Sprague-Dawley rats caused to have osteoarthritis; test: Osteoarthritis caused by anterior cruciate ligament transection and partial medial meniscectomy, 84 days administration
Experimental: Sprague-Dawley rats (male, 6 week-old, SLC., JAPAN) [ANNEX I-III] were prepared as laboratory animals.
Six experimental groups were formed, with 8 Sprague-Dawley Rats in each group. […] In addition, a negative control group was an OA control group which was treated with nothing after causing osteoarthritis, and a positive control group was administered 2 mg/kg of diclofenac sodium after causing osteoarthritis.
The medium for the administration was sterilized distilled water at 5 ml/kg.
For the positive control, 2 mg/kg of the diclofenac sodium was transdermally administered at 1 ml/kg of normal saline as a medium every day for 84 days.
Each experimental rat was anesthetized with Zoletile 50 (Vir bac Lab., France), and the left articular capsule was exposed and underwent anterior cruciate ligament transaction and partial medial meniscectomy to cause osteoarthritis. For the sham surgery group, the articular capsule was excised to observe the medial meniscus inside the organ and closed without surgical removal.
Weight change and knee joint thickness change were monitored and measured once a week for 84 days from administration, and on the final day, the maximum stretching angle of the knee joint and the knee joint thickness after exposing the capsule were measured under Safranin O dye, respectively. The Makin scores of the femur and tibia and the cartilage thickness were then histomorphometrically measured, and the articular cartilages of the femur and tibia were each evaluated for BrdU immunoreactivity.

[3] = Diclofenac sodium treated group (dose not given)
[4] = Diclofenac sodium treated group (dose not given), average ± SD of 8 animals
[5] = Diclofenac sodium treated group (dose not given), ± SD of 16 joints
[6] = diclofenac sodium group (dose not given)
[7] = diclofenac sodium 2 mg/kg transdermal daily 84 days

SMILES: O=C(O)Cc1ccccc1Nc1c(Cl)cccc1Cl [Diclofenac sodium, diclofenac sodium]
- Cortex thickness (thymus) [1, 3]: 1.333 ± 0.705 mm/lobules
- Total thickness (thymus) [1, 3]: 1.941 ± 0.916 mm/lobules
- Entire thickness (spleen) [1, 4]: 4.464 ± 0.58 mm/central part
- Number of white medulla (spleen) [1, 4]: 10.500 ± 2.121 /1 mm^2
- Thickness of white medulla (spleen) [1, 4]: 0.986 ± 0.304 mm/white medulla
- Erosion level (Max = 3), femur articular cartilage [1, 5]: 1.000 ± 0.000
- Erosion level (Max = 4), tibia articular cartilage [1, 5]: 0.500 ± 1.000
- Safranin level (Max = 3), femur articular cartilage [1, 5]: 0.500 ± 0.577
- Safranin level (Max = 3), tibia articular cartilage [1, 5]: 1.500 ± 0.577
- Thickness (mm) of tibia articular cartilage [1, 5]: 0.169 ± 0.024 mm
- Thickness of the femur articular cartilage [1, 5]: 0.470 ± 0.674 mm
- collagen-induced RA opinion (proteoglycan loss, erosion, cartilage thickness of knee joint) ([1]; all Polycan groups except 21.25 mg/kg in the tibia, diclofenac sodium group): remarkably suppressed
- Safranin O score of femur articular cartilage, change compared to the RA control group [1, 6]: −63.64%
- Safranin O score of the tibia articular cartilage, change compared to the RA control group [1, 6]: −29.41%
- diameter of the spleen white medulla, change compared to the RA control group [1, 6]: −8.14%
- entire spleen thickness, change compared to the RA control group [1, 6]: 17.49%
- entire thymus thickness, change compared to the RA control group [1, 6]: −2.80%
- erosion score of the femur articular cartilage, change compared to the RA control group [1, 6]: −36.00%
- erosion score of the tibia articular cartilage, change compared to the RA control group [1, 6]: −75.00%
- number of spleen white medulla, change compared to the RA control group [1, 6]: 5.00%
- thickness of the femur joint cartilage, change compared to the RA control group [1, 6]: 333.70%
- thickness of the thymus cortex, change compared to the RA control group [1, 6]: 18.83%
- thickness of the tibia articular cartilage, change compared to the RA control group [1, 6]: 38.75%
- BrdU immunoreactive cell number in the femur articular cartilage, change compared to the OA control group [2, 7]: 9.52%
- BrdU immunoreactive cell number in the tibia articular cartilage, change compared to the OA control group [2, 7]: 1.56%
- Mankin score of the femur, change compared to the OA control group [2, 7]: −27.85%
- Mankin score of the tibia, change compared to the OA control group [2, 7]: −20.59%
- maximum stretching angle of knee joint, change compared to the OA control group [2, 7]: −18.18%
- thickness of the knee joint after exposing the joint capsule, change compared to the OA control group [2, 7]: −0.99%
- thickness of the knee joint in the final autopsy, change compared to the OA control group [2, 7]: −5.79%
- articular cartilage thickness of the femur, change compared to the OA control group ([2]; diclofenac sodium 2 mg/kg transdermal daily 84 days, b105): 35.11%
- thickness of the knee joint compared to osteoarthritis-caused control group over time ([2]; each of the three-dose Polycan and diclofenac sodium groups, from 21 days after administration, p<0.01 or p<0.05): significantly decreased
